Measured values from the supplement of paper PMC10307832.

Legend:
Experiment in all cases: relative viability (nuclei count vs DMSO), 5 days (fraction); higher = more cells survive
[1] = tested on: 201T
Method in brief: (§1)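 Relative viability was taken as the ratio of nuclei in treated wells to nuclei in vehicle wells. Lung cancer cell lines in 1536-well plates received compounds by pin tool one day after seeding, either one drug alone or a fixed anchor-drug dose plus five library-drug doses (not always all listed) in √10 steps. Nuclei were counted on 4× images after 5 days of treatment, and values are medians of duplicate plates.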

[2] = tested on: BEN
Method in brief: as §1

[3] = tested on: EMC-BAC-2
Method in brief: as §1

[4] = tested on: HARA
Method in brief: as §1

[5] = tested on: HCC-44
Method in brief: as §1

[6] = tested on: LCLC-103H
Method in brief: as §1

[7] = tested on: LOU-NH91
Method in brief: as §1

[8] = tested on: NCI-H1395
Method in brief: as §1

[9] = tested on: NCI-H1666
Method in brief: as §1

[10] = tested on: NCI-H1993
Method in brief: as §1

[11] = tested on: NCI-H2009
Method in brief: as §1

[12] = tested on: NCI-H2023
Method in brief: as §1

[13] = tested on: NCI-H2087
Method in brief: as §1

[14] = tested on: NCI-H2126
Method in brief: as §1

[15] = tested on: NCI-H2347
Method in brief: as §1

[16] = tested on: NCI-H23
Method in brief: as §1

[17] = tested on: NCI-H3122
Method in brief: as §1

[18] = tested on: NCI-H441
Method in brief: as §1

[19] = tested on: NCI-H596
Method in brief: as §1

[20] = tested on: NCI-H647
Method in brief: as §1

[21] = tested on: NCI-H650
Method in brief: as §1

[22] = tested on: NCI-H727
Method in brief: as §1

[23] = tested on: NCI-H838
Method in brief: as §1

## CC1(C)CCC(c2ccc(Cl)cc2)=C(CN2CCN(c3ccc(C(=O)NS(=O)(=O)c4ccc(N[C@H](CCN5CCOCC5)CSc5ccccc5)c(S(=O)(=O)C(F)(F)F)c4)cc3)CC2)C1 [Navitoclax] + Cc1cc(Nc2cc(N3CCN(C)CC3)nc(Sc3ccc(NC(=O)C4CC4)cc3)n2)n[nH]1 [Tozasertib] (partner 0.1 µM)
[1]; first compound 0.005 µM
  relative viability: 0.975
[1]; first compound 0.01581 µM
  relative viability: 1.04
[1]; first compound 0.05 µM
  relative viability: 0.778
[1]; first compound 0.1581 µM
  relative viability: 0.931
[1]; first compound 0.5 µM
  relative viability: 1.01
[2]; first compound 0.005 µM
  relative viability: 0.536
[2]; first compound 0.01581 µM
  relative viability: 0.568
[2]; first compound 0.05 µM
  relative viability: 0.522
[2]; first compound 0.1581 µM
  relative viability: 0.451
[2]; first compound 0.5 µM
  relative viability: 0.421
[3]; first compound 0.005 µM
  relative viability: 0.273
[3]; first compound 0.01581 µM
  relative viability: 0.27
[3]; first compound 0.05 µM
  relative viability: 0.243
[3]; first compound 0.1581 µM
  relative viability: 0.273
[3]; first compound 0.5 µM
  relative viability: 0.263
[4]; first compound 0.005 µM
  relative viability: 0.0833
[4]; first compound 0.01581 µM
  relative viability: 0.113
[4]; first compound 0.1581 µM
  relative viability: 0.0955
[4]; first compound 0.5 µM
  relative viability: 0.0891
[5]; first compound 0.05 µM
  relative viability: 1.1
[5]; first compound 0.5 µM
  relative viability: 0.613
[6]; first compound 0.005 µM
  relative viability: 0.505
[6]; first compound 0.01581 µM
  relative viability: 0.516
[6]; first compound 0.05 µM
  relative viability: 0.442
[6]; first compound 0.1581 µM
  relative viability: 0.404
[6]; first compound 0.5 µM
  relative viability: 0.466
[7]; first compound 0.005 µM
  relative viability: 0.667
[7]; first compound 0.01581 µM
  relative viability: 0.627
[7]; first compound 0.05 µM
  relative viability: 0.714
[7]; first compound 0.1581 µM
  relative viability: 0.655
[7]; first compound 0.5 µM
  relative viability: 0.563
[8]; first compound 0.005 µM
  relative viability: 0.703
[8]; first compound 0.01581 µM
  relative viability: 0.738
[8]; first compound 0.05 µM
  relative viability: 0.757
[8]; first compound 0.1581 µM
  relative viability: 0.787
[8]; first compound 0.5 µM
  relative viability: 0.81
[9]; first compound 0.005 µM
  relative viability: 0.626
[9]; first compound 0.01581 µM
  relative viability: 0.638
[9]; first compound 0.05 µM
  relative viability: 0.61
[9]; first compound 0.1581 µM
  relative viability: 0.587
[9]; first compound 0.5 µM
  relative viability: 0.666
[10]; first compound 0.005 µM
  relative viability: 0.596
[10]; first compound 0.01581 µM
  relative viability: 0.666
[10]; first compound 0.05 µM
  relative viability: 0.597
[10]; first compound 0.1581 µM
  relative viability: 0.522
[10]; first compound 0.5 µM
  relative viability: 0.595
[11]; first compound 0.005 µM
  relative viability: 0.692
[11]; first compound 0.01581 µM
  relative viability: 0.79
[11]; first compound 0.05 µM
  relative viability: 0.713
[11]; first compound 0.1581 µM
  relative viability: 0.769
[11]; first compound 0.5 µM
  relative viability: 0.711
[12]; first compound 0.005 µM
  relative viability: 0.384
[12]; first compound 0.01581 µM
  relative viability: 0.32
[12]; first compound 0.05 µM
  relative viability: 0.357
[12]; first compound 0.1581 µM
  relative viability: 0.36
[12]; first compound 0.5 µM
  relative viability: 0.244
[13]; first compound 0.005 µM
  relative viability: 0.245
[13]; first compound 0.01581 µM
  relative viability: 0.236
[13]; first compound 0.1581 µM
  relative viability: 0.197
[13]; first compound 0.5 µM
  relative viability: 0.294
[14]; first compound 0.005 µM
  relative viability: 0.817
[14]; first compound 0.01581 µM
  relative viability: 0.906
[14]; first compound 0.05 µM
  relative viability: 0.858
[14]; first compound 0.1581 µM
  relative viability: 0.823
[14]; first compound 0.5 µM
  relative viability: 0.749
[15]; first compound 0.005 µM
  relative viability: 0.505
[15]; first compound 0.01581 µM
  relative viability: 0.516
[15]; first compound 0.1581 µM
  relative viability: 0.614
[15]; first compound 0.5 µM
  relative viability: 0.668
[16]; first compound 0.005 µM
  relative viability: 0.398
[16]; first compound 0.01581 µM
  relative viability: 0.353
[16]; first compound 0.05 µM
  relative viability: 0.336
[16]; first compound 0.1581 µM
  relative viability: 0.325
[16]; first compound 0.5 µM
  relative viability: 0.352
[17]; first compound 0.005 µM
  relative viability: 0.353
[17]; first compound 0.01581 µM
  relative viability: 0.286
[17]; first compound 0.05 µM
  relative viability: 0.481
[17]; first compound 0.1581 µM
  relative viability: 0.306
[17]; first compound 0.5 µM
  relative viability: 0.373
[18]; first compound 0.005 µM
  relative viability: 0.648
[18]; first compound 0.01581 µM
  relative viability: 0.846
[18]; first compound 0.05 µM
  relative viability: 0.719
[18]; first compound 0.1581 µM
  relative viability: 0.524
[18]; first compound 0.5 µM
  relative viability: 0.676
[19]; first compound 0.005 µM
  relative viability: 0.776
[19]; first compound 0.01581 µM
  relative viability: 0.853
[19]; first compound 0.1581 µM
  relative viability: 0.885
[19]; first compound 0.5 µM
  relative viability: 1.03
[20]; first compound 0.005 µM
  relative viability: 0.301
[20]; first compound 0.01581 µM
  relative viability: 0.268
[20]; first compound 0.05 µM
  relative viability: 0.292
[20]; first compound 0.1581 µM
  relative viability: 0.27
[20]; first compound 0.5 µM
  relative viability: 0.251
[21]; first compound 0.005 µM
  relative viability: 0.711
[21]; first compound 0.01581 µM
  relative viability: 0.818
[21]; first compound 0.05 µM
  relative viability: 0.781
[21]; first compound 0.1581 µM
  relative viability: 0.765
[21]; first compound 0.5 µM
  relative viability: 0.718
[22]; first compound 0.005 µM
  relative viability: 0.621
[22]; first compound 0.01581 µM
  relative viability: 0.692
[22]; first compound 0.1581 µM
  relative viability: 0.676
[22]; first compound 0.5 µM
  relative viability: 0.646
[23]; first compound 0.005 µM
  relative viability: 0.295
[23]; first compound 0.01581 µM
  relative viability: 0.328
[23]; first compound 0.05 µM
  relative viability: 0.266
[23]; first compound 0.1581 µM
  relative viability: 0.266
[23]; first compound 0.5 µM
  relative viability: 0.292
